Values of other authors as cited in patent US7282487B2, “Method for treating bacterial infections in horses or pigs with tilmicosin” (priority 2004, dated 2007).

solubility in aqueous solutions: moderately soluble
Structure (SMILES): CC[C@H]1OC(=O)C[C@@H](O)[C@H](C)[C@@H](OC2OC(C)C(O)C(N(C)C)C2O)[C@@H](CCN2C[C@@H](C)C[C@H](C)C2)C[C@@H](C)C(=O)/C=C/C(C)=C/[C@@H]1COC1OC(C)C(O)C(OC)C1OC (stereo partly shown) [tilmicosin, Tilmicosin]
